Source: article PMC7845692 (Frontiers in Pharmacology, 2020)
Where two headings read alike, the source gives them in different places.

What was measured:
[1] = cell cytotoxicity by visualization (FIPV host cells); conditions: cat
Procedure: (§2) The serotype II FIPV Taiwan isolate NTU156 strain, a kind gift from National Taiwan University, was propagated and titrated in Fcwf-4 cells ([Lin et al., 2009]). The EC50 for anti-FIPV activity and CC50 for cell cytotoxicity were determined as previously described ([Yang et al., 2020b]).

[2] = HCT-8 cell viability (MTS); conditions: human
[3] = tested on: Feline infectious peritonitis virus; experiment: anti-FIPV activity, cytopathic effect by visualization in Fcwf-4 cells; conditions: for EC50: Alphacoronavirus 1, read-out: Feline infectious peritonitis virus EC50 CPE/visualization
Procedure: as §2

Human coronavirus OC43 = experiment: HCoV-OC43 immunofluorescent assay (IFA) against N protein in HCT-8 cells; assay type: cell-based; conditions: for EC50: read-out: Human coronavirus OC43 EC50 (IFA); for Human coronavirus OC43 Selectivity index: CC50/EC50, HCT-8 cells
HCoV-229E [4] = experiment: HCoV-229E viral RNA (ORF1, ORF N) by semi-RT-qPCR in MRC-5 cells; assay type: cell-based, Human coronavirus 229E; conditions: MRC-5, MOI 1, 30 h.p.i., 10–300 nM, dose dependent
Procedure: These experiments were performed as described ([Yang et al., 2007b]). Mock or HCoV-229E infected (MOI of 1) lysates were processed and prepared at 30 h.p.i. without or with compound treatment. The total RNA was extracted with TRIzol reagent (Invitrogen). The relative viral RNA expression levels were determined by semi-RT-qPCR, analyzed with the ImageJ Analyzer program (http://imagej.nih.gov/ij/index.html), and normalized with the housekeeping gene GAPDH. The primers used to amplify the PCR products were 5′-GGCGAGGTGGAATTTGTTTA-3′ and 5′-ACCTTTAAGCCACCATGTGC-3′ for ORF1; 5′-TCTGCCAAGAGTCTTGCTCG-3′ and 5′-AGCATAGCAGCTGTTGACGG-3′ for ORF N. The amplification of target cDNA was conducted under the following conditions: 25 cycles of 95°C for 30 s, 55°C for 20 s, and 72°C for 30 s for ORF N; 29 cycles of 95°C for 30 s, 55°C for 20 s, and 72°C for 30 s for ORF1, and 35 cycles of 95°C for 30 s, 55°C for 20 s, and 72°C for 30 s for GAPDH. The final PCR products were subjected to electrophoresis on 2% agarose gel containing ethidium bromide along with DNA markers.

[5] = Vero E6 cytotoxicity by visualization; assay type: cell-based; conditions: African green monkey, Vero E6 cells; read-out: SARS-CoV-2 CC50 Visualization
Procedure: (§1) CPE was performed as described ([Wu et al., 2004]). For IFA, Vero E6 cells (BCRC number: 60476; derived from ATCC CRL-1586) were treated with each compound at the indicated concentration for 1 h at 37°C. The cells were adsorbed with SARS-CoV-2 (TCDC#4) (sequence available on the GISAID website) at an MOI = 0.01 for 1 h at 37°C. After virus adsorption, the cells were washed with PBS and fresh medium containing each compound at the indicated concentration was added. After 2 days, cells were fixed with 4% paraformaldehyde and permeabilized with 0.5% Triton X-100. The cells were stained with anti-SARS-CoV-2 N protein antibody, provided by Dr. An-Suei Yang of the Genomics Research Center, Academia Sinica, and goat anti-human IgG-Alexa Fluor 488 (A11013, Invitrogen) (in green). The nuclei were counter stained with DAPI (in blue) (D1306, Invitrogen). The N protein expression was measured using a high-content image analysis system (Molecular Devices). The cell viability was determined by Cell Counting Kit-8 (CCK-8) (Sigma-Aldrich, cat #96992). EC50 and CC50 values were calculated by Prism software.

SARS-CoV-2 [6] = experiment: SARS-CoV-2 cytopathic effect by visualization in Vero E6 cells; assay type: cell-based
Procedure: as §1

Human coronavirus 229E = experiment: HCoV-229E cytopathic effect, crystal violet absorbance in MRC-5 cells; conditions: CC50/EC50, MRC-5 cells
SARS-CoV-2 [7] = experiment: SARS-CoV-2 IFA against N protein in Vero E6 cells; assay type: cell-based; conditions: for SARS-CoV-2 Selectivity index (IFA/CCK-8): CC50/EC50, Vero E6 cells
Procedure: as §1

HCoV-229E [8] = experiment: HCoV-229E viral yield, end point dilution assay / TCID50; conditions: MRC-5, MOI 0.05; for complete reduction of HCoV-229E viral yield: at 100, 300 and 600 nM respectively (dbq33b, dbq33b4p7, PI09); for concentration giving complete reduction of HCoV-229E viral yield: reduction 6–7 log
[9] = Vero E6 cell viability (CCK-8); assay type: cell-based; conditions: African green monkey, Vero E6 cells; read-out: SARS-CoV-2 CC50 CCK-8
Procedure: as §1

HCoV-OC43 = HCoV-OC43 viral yield, end point dilution assay / TCID50; assay type: cell-based, Human coronavirus OC43; conditions: for concentration accomplishing complete reduction of HCoV-OC43 viral yield: reduction ∼7–8 log
in vitro [10] = conditions: human
in vitro [11] = conditions: human, MRC-5 cells
SARS-CoV-2 [12] = experiment: microbe, parasite or virus in culture; assay type: cell-based; conditions: Severe acute respiratory syndrome coronavirus 2, Vero C1008; Vero E6 cells, 5–7 days, Figure 5B-b; read-out: SARS-CoV-2 plaque assay EC50
[13] = Betacoronavirus 1, OC43, HCT-8, 72 h
[14] = Severe acute respiratory syndrome coronavirus 2, Vero C1008, 48 h, read-out: SARS-CoV-2 EC50 IFA, Vero E6 cells, MOI 0.01, 2 d.p.i., N protein
[15] = Betacoronavirus 1, OC43, HCT-8 cells, MOI 0.05, 72 h.p.i., means ± SD
[16] = HCT-8, MOI 0.05, reduction ∼2–3 orders of magnitude
[17] = at concentrations of up to 50 μM

Row | SMILES | CC50 [1] | CC50 at 72 h ([2]; HCT-8 cells) | EC50 [3] | Feline infectious peritonitis virus Selectivity index ([3]; CC50/EC50, Fcwf-4 cells) | EC50 (Human coronavirus OC43; [13]) | Human coronavirus OC43 Selectivity index (Human coronavirus OC43) | CC50 (in vitro [10]) | EC50 (Human coronavirus OC43; [15]) | also measured
1 | COc1cc2c3c(c4cc(OC)c(OC)cc4c2cc1OC)CN1CCCCC1C3 (stereo not shown) [PQ09] | 3090 ± 886 nM | > 10000 nM | 17 ± 6 nM | 182.0 | 52 ± 6 nM | >193 | – | – | –
2 | COc1cc2c3c(c4cc(OC)c(OC)c(OC)c4c2cc1OC)CC1CCC[N+]1([O-])C3 (stereo not shown) [031p13-3] | > 50000 nM | > 10000 nM | 1560 nM | >32.1 | 1890 ± 228 nM | >5.3 | – | – | –
3 | COc1cc2c3c(c4cc(OC)c(OC)cc4c2cc1OC)CN1CCCC1C3 (stereo not shown) [PI09] | 6380 ± 2250 nM | – | 62 ± 25 nM | 102.8 | – | >147 | > 10000 nM | 68 ± 3 nM | effect on HCoV-229E viral genome replication and subgenomic viral RNA syntheses (RT-PCR ORF1, ORF N) (HCoV-229E [4]): inhibited HCoV-229E viral genome replication and subgenomic viral RNA syntheses; CC50 [5]: 5000 nM; EC50 (SARS-CoV-2 [6]; Severe acute respiratory syndrome coronavirus 2, Vero C1008, read-out: SARS-CoV-2 EC50 CPE/visualization): 78 nM; Human coronavirus 229E Selectivity index (Human coronavirus 229E): 93; SARS-CoV-2 Selectivity index (IFA/CCK-8) (SARS-CoV-2 [7]): 46; EC50 (SARS-CoV-2 [7]; [14]): 77 nM; EC50 (SARS-CoV-2 [7]; read-out: SARS-CoV-2 EC50 IFA, Vero E6 cells, MOI 0.01, 2 d.p.i., N protein): 76.8 nM; complete reduction of HCoV-229E viral yield (HCoV-229E [8]): 6–7 log of magnitudes; concentration giving complete reduction of HCoV-229E viral yield (HCoV-229E [8]): 600 nM; CC50 [9]: 3550 nM; complete reduction of HCoV-OC43 viral yield (HCoV-OC43): 7–8 log of magnitudes; concentration accomplishing complete reduction of HCoV-OC43 viral yield (HCoV-OC43; HCT-8, MOI 0.05): 300 nM; CC50 (in vitro [11]): 6640 nM
4 | N#C[C@@]1(c2ccc3c(N)ncnn23)O[C@H](CO)[C@@H](O)[C@H]1O [GS441524, GS-441524] | – | – | – | – | 6930 nM | >7.2 | – | – | EC50 (SARS-CoV-2 [12]): 860 ± 29.2 nM; CC50 at 72 h (in vitro [10]): > 50000 nM
5 | CCN1Cc2c(c3ccc(OC)cc3c3cc(OC)c(OC)cc23)C(O)C1C (stereo not shown) [dbq33b4p7] | 6250 ± 2160 nM | > 10000 nM | 20 ± 7 nM | 312.5 | 56 ± 6 nM | >179 | – | – | effect on HCoV-229E viral genome replication and subgenomic viral RNA syntheses (RT-PCR ORF1, ORF N) (HCoV-229E [4]): inhibited HCoV-229E viral genome replication and subgenomic viral RNA syntheses; CC50 [5]: 2500 nM; SARS-CoV-2 Selectivity index (CPE/visualization) (SARS-CoV-2 [6]; CC50/EC50, Vero E6 cells): 125; EC50 (SARS-CoV-2 [6]; Severe acute respiratory syndrome coronavirus 2, Vero C1008, Vero E6 cells, means from duplicate, read-out: SARS-CoV-2 EC50 CPE/visualization): 20 nM; Human coronavirus 229E Selectivity index (Human coronavirus 229E): 290; SARS-CoV-2 Selectivity index (IFA/CCK-8) (SARS-CoV-2 [7]): 93; EC50 (SARS-CoV-2 [7]; [14]): 32 nM; EC50 (SARS-CoV-2 [7]; Vero E6 cells, MOI 0.01, 2 d.p.i., N protein, read-out: SARS-CoV-2 EC50 IFA): 31.9 nM; complete reduction of HCoV-229E viral yield (HCoV-229E [8]): 6–7 log of magnitudes; concentration giving complete reduction of HCoV-229E viral yield (HCoV-229E [8]): 300 nM; CC50 [9]: 2970 nM; complete reduction of HCoV-OC43 viral yield (HCoV-OC43; HCT-8, MOI 0.05, supernatant 72 h.p.i., at 30, 100 and 300 nM respectively (dbq33b, dbq33b4p7, PI09)): 7–8 log of magnitudes; concentration accomplishing complete reduction of HCoV-OC43 viral yield (HCoV-OC43; HCT-8, MOI 0.05): 100 nM; CC50 (in vitro [11]): 7360 nM
6 | CO[C@H]1C[C@H](O[C@H]2CC[C@@]3(C)[C@H](CC[C@@H]4[C@@H]3CC[C@]3(C)[C@@H](C5=CC(=O)OC5)[C@@H](OC(C)=O)C[C@]43O)C2)O[C@@H](C)[C@@H]1O [Oleandrin, oleandrin] | 2850 ± 1070 nM | – | 729 ± 244 nM | 3.9 | – | 3.8 | 211 ± 62 nM | 56 ± 5 nM | maximum reduction of HCoV-OC43 viral yield (HCoV-OC43): 2–3 orders of magnitudes; concentration of maximum reduction of HCoV-OC43 viral yield (HCoV-OC43; [16]): 30 nM
7 | C[C@]12CC[C@H](O)C[C@H]1CC[C@@H]1[C@@H]2CC[C@]2(C)[C@@H](c3ccc(=O)oc3)CC[C@]12O [Bufalin, bufalin, reference compound] | 542 ± 213 nM | – | 19 ± 9 nM | 28.5 | 56 ± 4 nM | 16.1 | – | – | CC50 at 72 h [2]: 900 ± 180 nM; concentration of maximum reduction of HCoV-OC43 viral yield (HCoV-OC43): 100 nM; maximum reduction of HCoV-OC43 viral yield (HCoV-OC43): 2–3 orders of magnitudes
8 | C[C@@H]1O[C@@H](O[C@H]2C[C@@H](O)[C@]3(CO)[C@H]4[C@H](O)C[C@]5(C)[C@@H](C6=CC(=O)OC6)CC[C@]5(O)[C@@H]4CC[C@]3(O)C2)[C@H](O)[C@H](O)[C@H]1O [Ouabain, ouabain] | 6250 ± 2160 nM | – | 1560 nM | 4.0 | – | 7.1 | 504 ± 11 nM | 71 ± 7 nM | maximum reduction of HCoV-OC43 viral yield (HCoV-OC43): 2–3 orders of magnitudes; concentration of maximum reduction of HCoV-OC43 viral yield (HCoV-OC43; [16]): 10 nM
9 | CCN1CCc2c(c3cc(OC)c(OC)cc3c3cc(OC)ccc23)C1 [dbq29a] | 4310 ± 1120 nM | > 10000 nM | 352 ± 77 nM | 12.3 | 213 ± 62 nM | >46.9 | – | – | –
10 | C[C@]12CC[C@H](O)C[C@H]1CC[C@@H]1[C@@H]2CC[C@]2(C)[C@@H](C3=CC(=O)OC3)CC[C@]12O [Digitoxigenin, digitoxigenin] | 3560 ± 375 nM | – | 458 ± 18 nM | 7.8 | 323 ± 20 nM | >7.7 | – | – | CC50 at 72 h [2]: > 2500 nM
11 | C[C@]12CC[C@H](O)C[C@H]1CC[C@@H]1[C@@H]2CC[C@]2(C)[C@@](O)(c3ccoc3)CC[C@]12O [rostafuroxin] | – | – | – | – | – | – | – | – | inhibitory activity against FIPV [3, 17]: did not exhibit any inhibitory activity; inhibitory activity against HCoV-OC43 (Human coronavirus OC43; [17]): did not exhibit any inhibitory activity
12 | CCC(CC)COC(=O)[C@H](C)N[P@](=O)(OC[C@H]1O[C@@](C#N)(c2ccc3c(N)ncnn23)[C@H](O)[C@@H]1O)Oc1ccccc1 [Remdesivir] | – | – | – | – | 947 ± 320 nM | >52.8 | > 50000 nM | – | EC50 (SARS-CoV-2 [12]): 647 ± 16.7 nM
13 | C[C@H]1O[C@@H](O[C@H]2[C@@H](O)C[C@H](O[C@H]3[C@@H](O)C[C@H](O[C@H]4CC[C@@]5(C)[C@H](CC[C@@H]6[C@@H]5C[C@@H](O)[C@]5(C)[C@@H](C7=CC(=O)OC7)CC[C@]65O)C4)O[C@@H]3C)O[C@@H]2C)C[C@H](O)[C@@H]1O [Digoxin, digoxin] | 1190 ± 603 nM | – | 212 ± 96 nM | – | – | 5.2 | 1400 ± 350 nM | 269 ± 45 nM | Feline infectious peritonitis virus Selectivity index [3]: 5.6
